Data from PubChem BioAssay (NCI).
Where “and” joins values, the source holds several entries; their conditions need not be identical. Equal values may be shown once.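 Following 48 hours of exposure in 96-well plates, responses at five concentrations were used to interpolate endpoints linearly. GI50 is the concentration that inhibits growth by half. TGI is the concentration that stops growth completely.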 *1 amine or outer side, *2 acyl side, *3 side chain or, on linkers, in order; H or OH if unused. Where a SMILES comes first, the peptide text is derived from it. [ ]: non-standard residue; d: D form. The star is where a group is joined. X31 = CC(=O)N(C)SCC(N[*:1])C(=O)[*:2]; Cbz = O=C(OCc1ccccc1)*; Bn = c1ccc(C*)cc1; For = O=C*

Key:
Test in all cases: DTP human tumour cell line panel, 48 h
TK-10 renal = system: TK-10 renal
OVCAR-4 ovarian = system: OVCAR-4 ovarian
SW-620 colon = system: SW-620 colon
SNB-75 CNS = system: SNB-75 CNS
HCC-2998 colon = system: HCC-2998 colon
SR leukemia = system: SR leukemia
HCT-15 colon = system: HCT-15 colon
HS 578T breast = system: HS 578T breast
K-562 leukemia = system: K-562 leukemia
SF-268 CNS = system: SF-268 CNS
DU-145 prostate = system: DU-145 prostate
MDA-MB-231 breast = system: MDA-MB-231 breast

SMILES	TGI (TK-10 renal) [µM]	TGI (OVCAR-4 ovarian) [µM]	TGI (SW-620 colon) [µM]	TGI (SNB-75 CNS) [µM]	TGI (HCC-2998 colon)	TGI (SR leukemia) [µM]	TGI (HCT-15 colon) [µM]	TGI (HS 578T breast)	TGI (K-562 leukemia)	TGI (SF-268 CNS) [µM]	TGI (DU-145 prostate) [µM]	TGI (MDA-MB-231 breast)	GI50 (OVCAR-4 ovarian)	GI50 (HCC-2998 colon)	GI50 (HCT-15 colon)	GI50 (K-562 leukemia)	GI50 (DU-145 prostate)	GI50 (MDA-MB-231 breast)
COc1ccc(Nc2nnc(-c3nsc4ccccc34)s2)cc1	> 88.5	6.73	> 100	17.3	> 100 µM	> 100	> 100	> 100 µM	> 100 µM	> 100	> 100	> 100 µM	–	–	–	–	–	–
O=C(CC(=O)N(C(=O)/C=C\c1ccccc1)c1ccc(Cl)cc1)N1N=C(c2ccccc2)C(N=Nc2cccc([N+](=O)[O-])c2)C1=O (centres undefined)	38.9	–	57.9	29.3	> 100 µM	14	21.6	75.1 µM	68.6 µM	26.2	91.8	37.7 µM	–	–	–	–	–	–
COC(=O)C1(C(=O)OC)Cc2ccc(OC)cc2C2=C1C(=O)c1ccccc1C2=O	33.4	3.43	16.9	35.8	37.6 µM	> 100	25.2	50.4 µM	4.37 µM	26.2	30.3	4.34 µM	–	–	–	–	–	–
CCc1c2c([nH]c(=S)c1C#N)CCC2	> 100	> 100	> 100	> 100	> 100 µM	> 100	> 100	> 100 µM	> 100 µM	> 100	> 100	> 100 µM	–	–	–	–	–	–
O=C1/C(=C/c2cccc(F)c2)CCCc2ccccc21	29.1	31.8	30.5	41.3	27.8 µM	32.8	29.3	28.5 µM	32.1 µM	28.1	30.6	32.5 µM	–	–	–	–	–	–
CCOC(CN(C)C(=O)Nc1cccc2ccccc12)OCC	> 10	> 10	> 10	> 10	> 10 µM	> 10	> 10	> 10 µM	> 10 µM	> 10	> 10	> 10 µM	–	–	–	–	–	–
C=CCN1C(=O)/C(=C/c2ccco2)N=C1SC/C=C/C	> 100	> 100	> 100	> 100	> 100 µM	52.9	> 100	> 100 µM	> 100 µM	> 100	> 100	> 100 µM	–	–	–	–	–	–
CNC1=C(C)C(=O)C(=O)C([C@H](C)CCC=C(C)C)=C1O	> 100	> 77	> 100	> 94.4	99.3 µM	71	> 100	> 91.8 µM	> 100 µM	> 100	> 100	> 100 µM	–	–	–	–	–	–
Cc1ccc2c(c1)[nH]c(=S)n2/C=C1\C(=O)Oc2ccccc2C1=O	> 100	> 100	> 100	> 100	> 100 µM	> 100	> 100	> 100 µM	> 100 µM	> 100	> 100	> 100 µM	–	–	–	–	–	–
CCOC(=O)/C(C#N)=C\c1ccc(N(CCC(=O)O)CCC(=O)O)c(I)c1	> 10	> 10	> 10	> 10	> 10 µM	> 10	> 10	> 10 µM	> 10 µM	> 10	> 10	> 10 µM	–	–	–	–	–	–
C=CCOc1cccc(C2(O)c3ccccc3C3=NCCCN32)c1 (centres undefined)	> 100	> 80.1	28.7	36.8	29.6 µM	32.6	> 50	> 78.4 µM	> 35.4 µM	> 100	> 100	> 100 µM	–	–	–	–	–	–
CC(C)Cn1cnc2c(NCC(C)O)nc3ccccc3c21 (centres undefined)	> 100	> 100	> 100	> 100	> 100 µM	> 100	> 100	> 100 µM	> 100 µM	> 100	> 100	> 100 µM	–	–	–	–	–	–
Cn1c(=O)c(Br)c(C=O)n(CCO[N+](=O)[O-])c1=O	15.7	–	5.45	27	32 µM	5.48	20	> 100 µM	8.82 µM	31.3	> 100	8.4 µM	–	–	–	–	–	–
CC(=O)NC1C(OCc2ccccc2)OC(CO)C(O)C1OC(C)C(=O)NC(C(=O)N[C@@H](CCC(=O)NCCNCCNc1c2ccccc2nc2cccc([N+](=O)[O-])c12)C(N)=O)C(C)C (some centres undefined)	> 100	> 100	58.5	> 100	50.4 µM	5.24	> 100	> 100 µM	19.9 µM	> 100	> 100	> 100 µM	–	–	–	–	–	–
N#Cc1c(N)nc(-c2ccc(Cl)cc2)c2c1-c1ccccc1S(=O)(=O)CC2	> 100	> 100	> 100	> 100	> 100 µM	> 100	> 100	> 100 µM	> 100 µM	> 100	> 100	> 100 µM	–	–	–	–	–	–
O=C(NC1=NCC(CN2CCN(c3ccccc3)CC2)O1)Nc1ccccc1 (centres undefined)	> 100	> 100	> 100	–	> 100 µM	> 100	> 100	> 100 µM	> 100 µM	> 100	> 100	> 100 µM	–	–	–	–	–	–
C=CCNC(=O)NC(=O)CSC1=NNC2(C(=O)N1)c1ccccc1-c1ccccc12	> 10	> 10	> 10	> 10	> 10 µM	> 10	> 10	> 10 µM	> 10 µM	> 10	> 10	> 10 µM	–	–	–	–	–	–
O=C(CN1CCCCC1)Nc1ccc2sc3ccccc3c(=O)c2n1	50.4	> 100	31.4	32.3	36.8 µM	> 100	40.2	45.2 µM	52.3 µM	74.3	> 100	59.9 µM	–	–	–	–	–	–

SMILES	TGI (TK-10 renal) [µM]	TGI (OVCAR-4 ovarian) [µM]	TGI (SW-620 colon) [µM]	TGI (SNB-75 CNS) [µM]	TGI (HCC-2998 colon)	TGI (SR leukemia) [µM]	TGI (HCT-15 colon) [µM]	TGI (HS 578T breast)	TGI (K-562 leukemia)	TGI (SF-268 CNS) [µM]	TGI (DU-145 prostate) [µM]	TGI (MDA-MB-231 breast)	GI50 (OVCAR-4 ovarian)	GI50 (HCC-2998 colon)	GI50 (HCT-15 colon)	GI50 (K-562 leukemia)	GI50 (DU-145 prostate)	GI50 (MDA-MB-231 breast)
O=C1c2cc(Cl)ccc2-n2cnnc2C2CSCN12 (centres undefined)	> 100	> 100	> 100	> 100	> 100 µM	> 100	> 100	> 100 µM	> 100 µM	> 100	> 100	> 100 µM	–	–	–	–	–	–
O=c1oc2ccc3ccccc3c2cc1-c1cn2ccccc2n1	> 100	–	> 100	> 100	> 100 µM	> 100	> 100	> 100 µM	> 100 µM	> 100	> 100	> 100 µM	–	–	–	–	–	–
CC(=O)C(=C(c1ccccc1)c1ccccc1)c1ccccc1	> 100	> 100	> 100	> 100	> 100 µM	> 100	> 100	> 100 µM	> 100 µM	> 100	> 100	> 100 µM	–	–	–	–	–	–
Cc1cccc(C)c1NC(=O)C(C#N)C1=C(Cl)C(=O)c2ccccc2C1=O (centres undefined)	33.7	30.3	34.3	29.2	32.2 µM	> 45.8	36	52.1 µM	> 36.4 µM	31.6	28.1	49.7 µM	–	–	–	–	–	–
COC1(OC)c2no[n+]([O-])c2CCC1O (centres undefined)	> 100	> 100	> 100	–	> 100 µM	> 100	> 100	> 100 µM	> 100 µM	> 100	> 100	> 100 µM	–	–	–	–	–	–
Cn1c2ccccc2c2c(-c3ccccc3)cc3c(c21)C(=O)C=CC3=O	3.4	5.75	2.21	> 9.66	> 8.05 µM	0.817	5.41	9.62 µM	> 3.46 µM	> 9.19	> 10	5.72 µM	–	–	–	–	–	–
CC[C@]1(Cc2ccc(OC)c(OC)c2)C=[N+]([O-])O[C@H](OC2CCCC2(c2ccccc2)c2ccccc2)[C@@H]1OC(=O)c1ccccc1 (some centres undefined)	> 33.4	> 100	> 100	> 37.9	> 27.4 µM	> 100	> 100	> 100 µM	> 100 µM	> 100	> 56.3	> 100 µM	–	–	–	–	–	–
CC(=O)N(C)SCC(NC(=O)C(Cc1ccccc1)NC(=O)OCc1ccccc1)C(=O)NC(Cc1ccccc1)C(=O)NC(Cc1cn(C=O)c2ccccc12)C(=O)NC(CCCCNC(=O)OCc1ccccc1)C(=O)NC(C(=O)NC(CSN(C)C(C)=O)C(=O)NC(C(N)=O)C(C)OCc1ccccc1)C(C)OCc1ccccc1 (centres undefined) (Cbz-F[X31]FW(For)K(Cbz)T(Bn)[X31]T(Bn)-NH2; configuration not given here)	57.2	> 100	> 100	36.9	> 100 µM	> 100	> 100	> 100 µM	> 100 µM	> 100	> 100	30.5 µM	–	–	–	–	–	–
Cc1csc2[n+]1C(=O)/C(=C\c1ccc([N+](=O)[O-])cc1)S2	58.8	> 100	> 100	57.1	43.9 µM	> 100	–	74.3 µM	> 100 µM	86.5	> 100	68.6 µM	–	–	–	–	–	–
CCCCCCCCCCCCCCCCCCNc1ccn(C2OC(COP(=O)(O)OCC3OC(n4cc(F)c(=O)[nH]c4=O)CC3O)C(O)C2O)c(=O)n1 (centres undefined)	> 55.5	> 100	> 100	> 100	> 100 µM	28.8	> 100	> 100 µM	> 100 µM	> 50	> 100	> 100 µM	–	–	–	–	–	–
C=CCNC1=C2C[C@@H](C)C[C@@H](OC)[C@H](OC(=O)CCN)[C@H](C)/C=C(\C)[C@@H](OC(N)=O)[C@H](OC)/C=C\C=C(/C)C(=O)NC(=CC1=O)C2=O	10.5	21.3	> 100	9.63	3.61 µM	> 100	23.7	52.9 µM	> 100 µM	25.5	16	17.7 µM	–	–	–	–	–	–
COC(=O)/C=C(/C)n1nc2ccccc2n1	> 100	> 100	> 100	> 100	> 100 µM	> 100	> 100	> 100 µM	> 100 µM	> 100	> 100	> 100 µM	–	–	–	–	–	–
O=C1C(Cl)C2(CC(/C=C/c3ccccc3Cl)=NN2c2cccc(S(=O)(=O)O)c2)N1c1nc2ccccc2s1 (centres undefined)	84.6	> 100	> 100	> 100	> 100 µM	25.3	> 100	> 100 µM	> 100 µM	> 100	87.5	> 100 µM	–	–	–	–	–	–
O=C1CCC2C(O)c3cc4c(cc3C(c3ccc5c(c3)OCO5)N12)OCO4 (centres undefined)	> 100	> 100	> 100	41.5	> 100 µM	> 100	> 100	81.7 µM	> 100 µM	52.5	> 100	> 100 µM	–	–	–	–	–	–
CC(C)OC(=O)c1ccc(NCc2cc(O)ccc2O)cc1Cl	20.2	21.9	> 62.5	31.1	17.3 µM	8.6	3.95	> 100 µM	–	> 66.4	26.4	> 54 µM	–	–	–	–	–	–
N#Cc1c(-c2ccccc2)cc(-c2ccccc2)n(C2OC(CO)C(O)C(O)C2O)c1=S (centres undefined)	> 100	> 100	> 100	> 100	91 µM and > 100 µM	> 100	> 100	64.4 µM and > 100 µM	41.4 µM and > 100 µM	> 100	> 100	31.1 µM and 83 µM	37.1 µM and > 100 µM	26.4 µM and 93.8 µM	31 µM and 80.8 µM	13.7 µM and 29.4 µM	42.2 µM and > 100 µM	7.15 µM and 23.9 µM
O=C(ON=C1c2ccccc2C(Br)C(Br)c2ccccc21)c1cc([N+](=O)[O-])cc([N+](=O)[O-])c1 (centres undefined)	45.8	48.2	40.5	30.2	68.3 µM	26.9	42.7	61.6 µM	45.3 µM	35.7	66	35.6 µM	–	–	–	–	–	–
